We go through 45 compounds from patent EP2272817A1, “PAI-1 INHIBITOR” (Institute of Medicinal Molecular Design, Inc., priority 2008, dated 2009).

The structures appear in SMILES notation.

By inhibition is commonly meant the relative decrease from the control value, in per cent.

For this test, the target named is recombinant human PAI-1 (Homo sapiens, UniProt P05121). Kind of test: biochemical. As to conditions: read-out: Inhibition Rate of PAI-1 Activity (%).
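Also: PAI-1 preincubated with compound, then two-chain tPA added, residual tPA activity read with fluorogenic Pyr-Gly-Arg-MCA substrate after 30 min at room temperature.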

Chain of recombinant human PAI-1 (P05121 24-402): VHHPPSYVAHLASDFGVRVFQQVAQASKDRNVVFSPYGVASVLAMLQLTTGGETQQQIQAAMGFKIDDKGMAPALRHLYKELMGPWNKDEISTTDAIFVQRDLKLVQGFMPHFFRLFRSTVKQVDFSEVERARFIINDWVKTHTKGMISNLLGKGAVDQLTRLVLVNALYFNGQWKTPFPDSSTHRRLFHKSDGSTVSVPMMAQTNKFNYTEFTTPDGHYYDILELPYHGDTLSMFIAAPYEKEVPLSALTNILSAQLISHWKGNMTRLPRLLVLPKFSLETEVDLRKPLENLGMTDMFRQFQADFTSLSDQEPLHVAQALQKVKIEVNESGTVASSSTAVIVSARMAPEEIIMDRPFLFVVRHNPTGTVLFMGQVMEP
Experimental: To this solution, 6 µl of 80 nM recombinant human PAI-1 (Molecular Innovations, Inc.) solution prepared with Tris buffer was added, and the plate was incubated for 5 minutes at room temperature. Furthermore, 30 µl of 800 IU/ml two-chain tPA (Activity Standard; American diagnostica, inc.) prepared with Tris buffer was added, and the mixed solution was incubated for 15 minutes at room temperature. Then, 30 µl of 400 µM fluorogenic substrate (Pyr-Gly-Arg-MCA; Peptide Institute, Inc.) for tPA prepared with Tris buffer was added and reacted for 30 minutes at room temperature.
50 mM Tris, 150 mM NaCl, 10 µg/ml BSA, 0.01 % Tween80 (SIGMA-ALDRICH Corporation)

Turning to `CCC(Oc1ccc(-c2ccc(OC(F)(F)F)cc2)cc1Oc1ccc(C(C)(C)C)cc1)C(=O)O` (stereo not drawn) [Compound 114], the inhibition at 5 µM amounted to 64%, the inhibition at 10 µM was determined as 87% and the inhibition at 25 µM was found to be 95%.
As to `O=C(O)COc1cc(-c2ccc(OC(F)(F)F)cc2)ccc1OCCCCc1ccccc1` [Compound 115], the inhibition at 5 µM is 34%, the inhibition at 10 µM came out at 59% and the inhibition at 25 µM turned out to be 90%.
Consider `CC(C)(C)c1ccc(Oc2cc(-c3ccc(OC(F)(F)F)cc3)ccc2OC(F)C(=O)O)cc1` (stereo not drawn) [Compound 119], for which the inhibition at 5 µM is 75%, the inhibition at 10 µM was 93% and the inhibition at 25 µM was 99%.
On the same counts, the results for `CC(C)(C)c1ccc(Oc2cc(-c3ccc(OC(F)(F)F)cc3)ccc2OC(F)(F)C(=O)O)cc1` [Compound 120] are 59%, 87% and 98%.
On the same counts, the results for `CC(C)(C)c1ccc(COc2ccc(-c3ccc(OC(F)(F)F)cc3)cc2OCc2nn[nH]n2)cc1` [Compound 122] are 29%, 63% and 99%.
As for `Cc1cc(C)cc(CN(C(=O)C(=O)O)c2ccc(-c3ccc(OC(F)(F)F)cc3)cc2)c1` [Compound 123], the inhibition at 5 µM stood at 27% and the inhibition at 10 µM turned out to be 62%.
For the compound `O=C(O)C(=O)N(Cc1ccc(Cl)cc1)c1ccc(-c2ccc(OC(F)(F)F)cc2)cc1` [Compound 124], the inhibition at 5 µM turned out to be 22% and the inhibition at 10 µM is 49%.
For `Cc1cccc(CN(C(=O)C(=O)O)c2ccc(-c3ccc(OC(F)(F)F)cc3)cc2)c1` [Compound 125] the same measures were 15% and 31%.
Turning to `COc1ccc(-c2ccc(N(Cc3ccc(C(C)(C)C)cc3)C(=O)C(=O)O)cc2)cc1` [Compound 126], the inhibition at 5 µM came out at 16% and the inhibition at 10 µM stood at 43%.
For `CC(C)(C)c1ccc(CN(C(=O)C(=O)O)c2ccc(-c3ccc(F)cc3)cc2)cc1` [Compound 127] the same measures were 21% and 43%.
For `CC(C)(C)c1ccc(N(C(=O)C(=O)O)c2ccc(-c3ccc(OC(F)(F)F)cc3)cc2)cc1` [Compound 128] the same measures were 58% and 89%.
For `COc1ccc(CN(C(=O)C(=O)O)c2ccc(-c3ccc(OC(F)(F)F)cc3)cc2)cc1` [Compound 131], the inhibition at 10 µM turned out to be 10% and the inhibition at 25 µM is 34%.
As for `CC(C)(C)c1ccc(CN(C(=O)C(=O)O)c2ccc(Oc3ccc(OC(F)(F)F)cc3)cc2)cc1` [Compound 132], the inhibition at 10 µM is 32% and the inhibition at 25 µM came out at 82%.
For `CC(C)(C)c1ccc(CN(C(=O)C(=O)O)c2ccc(-c3ccc(OC(F)(F)F)cc3)cc2)cc1` [Compound 133], the inhibition at 5 µM was determined as 80% and the inhibition at 10 µM stood at 92%.
Turning to `CSc1ccc(-c2ccc(N(Cc3ccc(C(C)(C)C)cc3)C(=O)C(=O)O)cc2)cc1` [Compound 134], the inhibition at 10 µM was 14% and the inhibition at 25 µM amounted to 75%.
On the same counts, the results for `CC(C)(C)c1ccc(CN(C(=O)C(=O)O)c2ccc(-c3ccc(Cl)cc3)cc2)cc1` [Compound 135] are 6% and 67%.
Consider `Cc1ccc(-c2ccc(OC(F)(F)F)cc2)cc1N(Cc1ccc(C(C)(C)C)cc1)C(=O)C(=O)O` [Compound 136], for which the inhibition at 5 µM came to 16%, the inhibition at 10 µM amounted to 47% and the inhibition at 25 µM turned out to be 79%.
Take `Cc1ccc(-c2ccccc2)cc1N(Cc1ccc(C(C)(C)C)cc1)C(=O)C(=O)O` [Compound 137]: the inhibition at 10 µM stood at 5% and the inhibition at 25 µM came to 61%.
On the same counts, the results for `Cc1ccc(-c2cccc([N+](=O)[O-])c2)cc1N(Cc1ccc(C(C)(C)C)cc1)C(=O)C(=O)O` [Compound 138] are 4% and 61%.
`CC(C)(C)c1ccc(CN(C(=O)C(=O)O)c2cc(-c3ccccc3)cc(C(F)(F)F)c2)cc1` [Compound 140]: the inhibition at 5 µM was found to be 6%, the inhibition at 10 µM turned out to be 31% and the inhibition at 25 µM is 77%.
On to `Cc1ccc(-c2ccc(N(Cc3ccc(C(C)(C)C)cc3)C(=O)C(=O)O)cc2)cc1` [Compound 141], for which the inhibition at 10 µM stood at 5% and the inhibition at 25 µM was determined as 52%.
On the same counts, the results for `CC(C)(C)c1ccc(CN(C(=O)C(=O)O)c2ccc(-c3cccc([N+](=O)[O-])c3)cc2)cc1` [Compound 142] are 3% and 33%.
On the same counts, the results for `Cc1ccc(CN(C(=O)C(=O)O)c2ccc(-c3ccc(OC(F)(F)F)cc3)cc2)cc1` [Compound 143] are 1% and 22%.
On to `O=C(O)C(=O)N(Cc1ccc(Cl)cc1Cl)c1ccc(-c2ccc(OC(F)(F)F)cc2)cc1` [Compound 144], for which the inhibition at 5 µM came to 3%, the inhibition at 10 µM stood at 22% and the inhibition at 25 µM was 76%.
For `CC(C)(C)c1ccc(CN(C(=O)C(=O)O)c2ccc(-c3ccc(C(F)(F)F)cc3)cc2)cc1` [Compound 145] the same measures were 7%, 35% and 74%.
For `Cc1cc(-c2ccc(OC(F)(F)F)cc2)ccc1N(Cc1ccc(C(C)(C)C)cc1)C(=O)C(=O)O` [Compound 146] the same measures were 33%, 73% and 90%.
With `CC(C)(C)c1ccc(CN(C(=O)C(=O)O)c2ccccc2-c2ccc(OC(F)(F)F)cc2)cc1` [Compound 148], the inhibition at 5 µM stood at 17%, the inhibition at 10 µM was determined as 55% and the inhibition at 25 µM worked out at 98%.
As for `CC(C)(C)c1ccc(CN(C(=O)C(=O)O)c2ccc(-c3ccc(C#N)cc3)cc2)cc1` [Compound 149], the inhibition at 10 µM turned out to be 3% and the inhibition at 25 µM is 34%.
Take `CC(C)(C)c1ccc(CN(C(=O)C(=O)O)c2ccc(-c3ccc(OC(F)(F)F)cc3)cc2C(F)(F)F)cc1` [Compound 150]: the inhibition at 5 µM worked out at 33%, the inhibition at 10 µM is 75% and the inhibition at 25 µM stood at 87%.
On the same counts, the results for `CC(C)(C)c1ccc(CN(C(=O)C(=O)O)c2ccc(-c3ccc(OC(F)(F)F)cc3)cc2OC(F)(F)F)cc1` [Compound 151] are 35%, 80% and 90%.
For the compound `Cc1cc(-c2ccc(OC(F)(F)F)cc2)cc(C)c1N(Cc1ccc(C(C)(C)C)cc1)C(=O)C(=O)O` [Compound 152], the inhibition at 5 µM was 41%, the inhibition at 10 µM is 88% and the inhibition at 25 µM is 93%.
On the same counts, the results for `CC(C)(C)c1ccc(CN(C(=O)C(=O)O)c2ccccc2Oc2ccc(OC(F)(F)F)cc2)cc1` [Compound 153] are 20%, 54% and 93%.
Turning to `O=C(O)C(=O)N(Cc1ccccc1)c1ccc(Oc2ccc(OC(F)(F)F)cc2)cc1` [Compound 154], the inhibition at 10 µM is 3% and the inhibition at 25 µM stood at 20%.
As to `O=C(O)C(=O)N(Cc1ccc(F)cc1)c1ccc(-c2ccc(OC(F)(F)F)cc2)cc1` [Compound 155], the inhibition at 5 µM is 7%, the inhibition at 10 µM amounted to 15% and the inhibition at 25 µM came to 38%.
For `CC(C)(C)c1ccc(-c2ccc(N(Cc3ccccc3)C(=O)C(=O)O)cc2)cc1` [Compound 156] the same measures were 10%, 25% and 67%.
In the case of `CC(C)(C)c1ccc(N(C(=O)C(=O)O)c2ccccc2-c2ccc(OC(F)(F)F)cc2)cc1` [Compound 157], the inhibition at 5 µM came out at 25%, the inhibition at 10 µM amounted to 56% and the inhibition at 25 µM amounted to 96%.
For `CC(C)(C)c1ccc(N(C(=O)C(=O)O)c2cccc(-c3ccc(OC(F)(F)F)cc3)c2)cc1` [Compound 158] the same measures were 26%, 61% and greater than 99%.
Take `O=C(O)C(=O)N(Cc1ccc(OC(F)(F)F)cc1)c1ccc(-c2ccc(OC(F)(F)F)cc2)cc1` [Compound 159]: the inhibition at 5 µM was determined as 21%, the inhibition at 10 µM is 45% and the inhibition at 25 µM worked out at 92%.
For `CSc1ccc(CN(C(=O)C(=O)O)c2ccc(-c3ccc(OC(F)(F)F)cc3)cc2)cc1` [Compound 160] the same measures were 14%, 26% and 68%.
For `O=C(O)C(=O)N(Cc1ccc(-c2ccccc2)cc1)c1ccc(-c2ccc(OC(F)(F)F)cc2)cc1` [Compound 161] the same measures were 27%, 62% and greater than 99%.
In the case of `CC(C)(C)c1ccc(-c2ccc(N(Cc3ccc(OC(F)(F)F)cc3)C(=O)C(=O)O)cc2)cc1` [Compound 162], the inhibition at 5 µM came to 30%, the inhibition at 10 µM came to 74% and the inhibition at 25 µM was greater than 99%.
For `CC(C)(C)c1ccc(CN(C(=O)C(=O)O)c2ccc(-c3ccc(C(C)(C)C)cc3)cc2)cc1` [Compound 163] the same measures were 37%, 84% and greater than 99%.
Regarding `CCCCc1ccc(-c2ccc(N(Cc3ccc(C(C)(C)C)cc3)C(=O)C(=O)O)cc2)cc1` [Compound 164], the inhibition at 5 µM was 40%, the inhibition at 10 µM came out at 79% and the inhibition at 25 µM came to 96%.
For the compound `CC(C)(C)c1ccc(N(C(=O)C(=O)O)c2ccc(Oc3ccc(OC(F)(F)F)cc3)cc2)cc1` [Compound 165], the inhibition at 5 µM worked out at 27%, the inhibition at 10 µM was found to be 64% and the inhibition at 25 µM came out at 96%.
For `CC(C)(C)c1ccc(CN(C(=O)C(=O)O)c2ccc(-c3ccc(OC(F)(F)F)cc3)c(C(F)(F)F)c2)cc1` [Compound 166] the same measures were 44%, 79% and 84%.
